According to ChEMBL document CHEMBL4507299, “Data for DCP probe PF-04554878” (2021):

How the values were obtained:
[1] = biological target: Phosphatidylinositol 4-kinase beta (Homo sapiens) (UniProt Q9UBF8)
[2] = biological target: Dual specificity mitogen-activated protein kinase kinase 4 (Homo sapiens) (UniProt P45985)
[3] = test system: Receptor-type tyrosine-protein kinase FLT3 (Homo sapiens), P36888 [K663Q]
[4] = test system: Tyrosine-protein kinase ABL1 (Homo sapiens), P00519 [Y253F]
[5] = biological target: Mitogen-activated protein kinase kinase kinase 9 (Homo sapiens, UniProt P80192)
Sequence of Mitogen-activated protein kinase kinase kinase 9 (P80192 whole entry, looked up): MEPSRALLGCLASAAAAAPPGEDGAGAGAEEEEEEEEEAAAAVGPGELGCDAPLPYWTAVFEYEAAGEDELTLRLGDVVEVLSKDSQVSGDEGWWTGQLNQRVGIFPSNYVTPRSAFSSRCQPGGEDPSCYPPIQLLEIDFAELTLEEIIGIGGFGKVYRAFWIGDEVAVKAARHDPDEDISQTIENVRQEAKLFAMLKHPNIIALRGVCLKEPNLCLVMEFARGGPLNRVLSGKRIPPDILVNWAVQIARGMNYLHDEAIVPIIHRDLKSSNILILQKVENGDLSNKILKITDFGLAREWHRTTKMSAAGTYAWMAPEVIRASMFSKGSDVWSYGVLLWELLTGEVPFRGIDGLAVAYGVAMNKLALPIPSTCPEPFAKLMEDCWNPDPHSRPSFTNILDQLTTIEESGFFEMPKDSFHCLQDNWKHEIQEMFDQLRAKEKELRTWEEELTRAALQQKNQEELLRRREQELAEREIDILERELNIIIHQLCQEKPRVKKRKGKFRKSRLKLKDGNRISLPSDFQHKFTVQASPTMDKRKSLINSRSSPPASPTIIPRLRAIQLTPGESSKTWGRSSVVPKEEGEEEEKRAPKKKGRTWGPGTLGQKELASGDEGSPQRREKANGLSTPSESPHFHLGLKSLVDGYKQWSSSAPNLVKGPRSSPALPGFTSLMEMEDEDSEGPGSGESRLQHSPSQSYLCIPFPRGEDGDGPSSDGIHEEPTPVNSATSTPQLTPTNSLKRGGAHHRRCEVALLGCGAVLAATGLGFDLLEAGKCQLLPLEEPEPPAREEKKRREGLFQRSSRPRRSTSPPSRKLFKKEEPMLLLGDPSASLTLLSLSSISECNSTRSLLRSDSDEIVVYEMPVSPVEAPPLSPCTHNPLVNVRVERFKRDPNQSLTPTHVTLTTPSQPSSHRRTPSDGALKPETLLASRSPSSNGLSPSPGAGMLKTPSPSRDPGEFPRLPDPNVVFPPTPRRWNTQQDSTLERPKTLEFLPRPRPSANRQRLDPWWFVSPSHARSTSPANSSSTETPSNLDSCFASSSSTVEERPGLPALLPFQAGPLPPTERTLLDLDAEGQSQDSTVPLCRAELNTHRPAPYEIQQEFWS

[6] = biological target: Ribosomal protein S6 kinase alpha-2 (Homo sapiens) (UniProt Q15349)
[7] = biological target: Serine/threonine-protein kinase PRP4 homolog (Homo sapiens) (UniProt Q13523)
[8] = biological target: Fibroblast growth factor receptor 2 (Homo sapiens) (UniProt P21802)
Sequence of Fibroblast growth factor receptor 2 (Homo sapiens) (P21802 22-821 limits assumed): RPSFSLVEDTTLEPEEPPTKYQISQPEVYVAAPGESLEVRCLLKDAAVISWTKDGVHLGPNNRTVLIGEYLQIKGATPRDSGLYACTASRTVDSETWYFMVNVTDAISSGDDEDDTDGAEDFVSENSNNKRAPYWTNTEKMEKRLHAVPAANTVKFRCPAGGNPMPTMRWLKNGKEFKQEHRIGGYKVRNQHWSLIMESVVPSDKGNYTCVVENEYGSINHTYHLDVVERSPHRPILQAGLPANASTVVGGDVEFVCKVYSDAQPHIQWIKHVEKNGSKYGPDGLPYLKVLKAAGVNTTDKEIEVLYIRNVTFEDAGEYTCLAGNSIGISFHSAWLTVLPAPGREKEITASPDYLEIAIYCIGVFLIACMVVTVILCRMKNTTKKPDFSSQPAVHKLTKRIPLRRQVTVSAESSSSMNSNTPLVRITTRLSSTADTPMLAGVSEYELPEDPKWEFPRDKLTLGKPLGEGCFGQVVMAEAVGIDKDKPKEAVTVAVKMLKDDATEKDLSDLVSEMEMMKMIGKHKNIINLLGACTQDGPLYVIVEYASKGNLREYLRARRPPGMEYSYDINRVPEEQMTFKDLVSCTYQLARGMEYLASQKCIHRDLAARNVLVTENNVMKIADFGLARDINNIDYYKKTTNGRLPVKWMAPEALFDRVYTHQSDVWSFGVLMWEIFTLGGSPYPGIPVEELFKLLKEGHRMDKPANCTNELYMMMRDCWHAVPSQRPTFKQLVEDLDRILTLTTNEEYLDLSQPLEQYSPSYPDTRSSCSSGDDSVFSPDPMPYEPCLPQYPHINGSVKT

[9] = biological target: Phosphatidylinositol 4,5-bisphosphate 3-kinase catalytic subunit beta isoform (Homo sapiens) (UniProt P42338)
[10] = biological target: Tyrosine-protein kinase HCK (Homo sapiens) (UniProt P08631)
[11] = biological target: Tyrosine-protein kinase TXK (Homo sapiens) (UniProt P42681)
[12] = biological target: Mitogen-activated protein kinase kinase kinase 2 (Homo sapiens) (UniProt Q9Y2U5)
[13] = biological target: Serine/threonine-protein kinase 17B (Homo sapiens) (UniProt O94768)
[14] = biological target: Alpha-1A adrenergic receptor (Homo sapiens) (UniProt P35348); details: Compound concentration 10.0 uM
[15] = biological target: Phosphatidylinositol 5-phosphate 4-kinase type-2 gamma (Homo sapiens) (UniProt Q8TBX8)
[16] = test system: Epidermal growth factor receptor (Homo sapiens), P00533 [UNDEFINED MUTATION]
[17] = biological target: Wee1-like protein kinase 2 (Homo sapiens) (UniProt P0C1S8)
[18] = biological target: Tyrosine-protein kinase ABL1 (Homo sapiens, UniProt P00519)
[19] = biological target: Serine/threonine-protein kinase D1 (Homo sapiens) (UniProt Q15139)
[20] = biological target: Non-receptor tyrosine-protein kinase TYK2 (Homo sapiens) (UniProt P29597)
[21] = biological target: 5-hydroxytryptamine receptor 2B (Homo sapiens) (UniProt P41595); details: Compound concentration 10.0 uM
[22] = biological target: Tyrosine-protein kinase JAK1 (Homo sapiens) (UniProt P23458)
[23] = biological target: Inhibitor of nuclear factor kappa-B kinase subunit alpha (Homo sapiens) (UniProt O15111)
[24] = biological target: Hormonally up-regulated neu tumor-associated kinase (Homo sapiens) (UniProt P57058)
[25] = biological target: Phosphatidylinositol 4,5-bisphosphate 3-kinase catalytic subunit delta isoform (Homo sapiens) (UniProt O00329)
[26] = biological target: Serine/threonine-protein kinase PAK 6 (Homo sapiens) (UniProt Q9NQU5)
[27] = test system: Phosphatidylinositol 4,5-bisphosphate 3-kinase catalytic subunit alpha isoform (Homo sapiens), P42336 [M1043I]
[28] = biological target: Serine/threonine-protein kinase RIO2 (Homo sapiens) (UniProt Q9BVS4)
[29] = biological target: Rho-associated protein kinase 1 (Homo sapiens) (UniProt Q13464)
[30] = biological target: Muscarinic acetylcholine receptor M2 (Homo sapiens) (UniProt P08172); details: Compound concentration 10.0 uM
[31] = biological target: Casein kinase I isoform gamma-1 (Homo sapiens) (UniProt Q9HCP0)
Sequence of Casein kinase I isoform gamma-1 (Homo sapiens) (Q9HCP0 whole entry, looked up, canonical isoform): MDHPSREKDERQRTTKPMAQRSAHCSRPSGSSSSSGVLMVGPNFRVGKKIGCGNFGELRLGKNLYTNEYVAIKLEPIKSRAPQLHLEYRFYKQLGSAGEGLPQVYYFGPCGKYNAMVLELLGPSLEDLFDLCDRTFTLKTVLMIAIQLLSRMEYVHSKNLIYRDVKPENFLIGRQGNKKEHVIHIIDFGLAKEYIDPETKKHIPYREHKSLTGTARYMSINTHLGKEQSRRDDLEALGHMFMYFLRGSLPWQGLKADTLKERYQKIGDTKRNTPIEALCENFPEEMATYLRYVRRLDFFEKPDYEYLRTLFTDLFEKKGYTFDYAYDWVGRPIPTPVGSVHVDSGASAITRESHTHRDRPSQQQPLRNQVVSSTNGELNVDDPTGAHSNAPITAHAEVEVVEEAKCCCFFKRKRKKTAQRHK

[32] = biological target: Serine/threonine-protein kinase MRCK beta (Homo sapiens) (UniProt Q9Y5S2)
Sequence of Serine/threonine-protein kinase MRCK beta (Homo sapiens) (Q9Y5S2 whole entry): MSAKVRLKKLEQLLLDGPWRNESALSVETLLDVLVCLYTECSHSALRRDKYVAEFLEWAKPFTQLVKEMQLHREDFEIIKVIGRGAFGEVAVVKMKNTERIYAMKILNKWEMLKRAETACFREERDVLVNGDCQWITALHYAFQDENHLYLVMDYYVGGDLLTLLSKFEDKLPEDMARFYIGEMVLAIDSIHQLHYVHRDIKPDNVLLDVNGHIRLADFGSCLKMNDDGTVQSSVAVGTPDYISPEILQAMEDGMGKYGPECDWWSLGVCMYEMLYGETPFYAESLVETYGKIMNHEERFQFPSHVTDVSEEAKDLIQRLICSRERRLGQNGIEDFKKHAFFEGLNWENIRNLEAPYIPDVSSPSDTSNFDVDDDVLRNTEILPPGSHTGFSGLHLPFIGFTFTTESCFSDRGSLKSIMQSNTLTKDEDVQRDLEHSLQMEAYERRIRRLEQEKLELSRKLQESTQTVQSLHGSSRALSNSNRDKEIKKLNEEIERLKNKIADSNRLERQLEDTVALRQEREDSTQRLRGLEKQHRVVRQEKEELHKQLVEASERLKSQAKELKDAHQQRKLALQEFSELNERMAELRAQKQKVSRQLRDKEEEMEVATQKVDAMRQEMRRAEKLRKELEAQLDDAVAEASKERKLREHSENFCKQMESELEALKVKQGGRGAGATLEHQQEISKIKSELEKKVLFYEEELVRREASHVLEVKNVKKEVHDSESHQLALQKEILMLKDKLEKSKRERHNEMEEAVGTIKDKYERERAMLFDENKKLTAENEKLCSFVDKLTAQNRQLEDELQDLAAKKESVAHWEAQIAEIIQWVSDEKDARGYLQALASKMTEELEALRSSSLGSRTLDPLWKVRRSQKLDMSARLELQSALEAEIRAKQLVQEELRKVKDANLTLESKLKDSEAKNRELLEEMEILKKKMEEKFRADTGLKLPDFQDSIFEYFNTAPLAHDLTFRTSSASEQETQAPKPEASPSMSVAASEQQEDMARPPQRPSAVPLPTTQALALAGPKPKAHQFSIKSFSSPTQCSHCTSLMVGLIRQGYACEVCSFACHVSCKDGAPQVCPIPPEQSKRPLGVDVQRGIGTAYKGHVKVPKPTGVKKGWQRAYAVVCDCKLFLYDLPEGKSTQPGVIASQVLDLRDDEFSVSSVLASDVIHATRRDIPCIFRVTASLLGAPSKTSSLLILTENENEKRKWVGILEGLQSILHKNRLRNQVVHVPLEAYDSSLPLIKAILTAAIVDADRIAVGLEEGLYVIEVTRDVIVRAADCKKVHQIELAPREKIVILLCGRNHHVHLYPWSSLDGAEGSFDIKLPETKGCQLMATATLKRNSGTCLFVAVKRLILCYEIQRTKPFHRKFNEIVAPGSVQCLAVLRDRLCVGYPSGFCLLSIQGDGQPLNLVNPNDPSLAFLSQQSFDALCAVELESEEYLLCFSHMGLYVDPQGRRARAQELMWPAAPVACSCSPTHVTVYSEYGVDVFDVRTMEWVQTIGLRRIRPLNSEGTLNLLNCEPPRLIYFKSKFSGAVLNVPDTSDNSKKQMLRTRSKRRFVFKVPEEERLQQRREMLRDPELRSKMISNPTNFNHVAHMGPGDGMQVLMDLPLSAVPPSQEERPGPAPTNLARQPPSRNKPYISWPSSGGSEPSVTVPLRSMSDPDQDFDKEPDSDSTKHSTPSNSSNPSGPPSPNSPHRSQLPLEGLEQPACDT

[33] = biological target: Ribosomal protein S6 kinase alpha-4 (Homo sapiens) (UniProt O75676)
[34] = biological target: Alpha-2A adrenergic receptor (Homo sapiens) (UniProt P08913); details: Compound concentration 10.0 uM
[35] = biological target: Citron Rho-interacting kinase (Homo sapiens) (UniProt O14578)
[36] = biological target: Mitogen-activated protein kinase kinase kinase kinase 4 (Homo sapiens) (UniProt O95819)
[37] = test system: Epidermal growth factor receptor (Homo sapiens), P00533 [L861Q]
[38] = biological target: Sigma intracellular receptor 2 (Homo sapiens, UniProt Q5BJF2); details: Compound concentration 10.0 uM
[39] = biological target: Cyclin-dependent kinase 13 (Homo sapiens) (UniProt Q14004)
[40] = biological target: Death-associated protein kinase 3 (Homo sapiens) (UniProt O43293)
Sequence of Death-associated protein kinase 3 (Homo sapiens) (O43293 whole entry, looked up, canonical isoform): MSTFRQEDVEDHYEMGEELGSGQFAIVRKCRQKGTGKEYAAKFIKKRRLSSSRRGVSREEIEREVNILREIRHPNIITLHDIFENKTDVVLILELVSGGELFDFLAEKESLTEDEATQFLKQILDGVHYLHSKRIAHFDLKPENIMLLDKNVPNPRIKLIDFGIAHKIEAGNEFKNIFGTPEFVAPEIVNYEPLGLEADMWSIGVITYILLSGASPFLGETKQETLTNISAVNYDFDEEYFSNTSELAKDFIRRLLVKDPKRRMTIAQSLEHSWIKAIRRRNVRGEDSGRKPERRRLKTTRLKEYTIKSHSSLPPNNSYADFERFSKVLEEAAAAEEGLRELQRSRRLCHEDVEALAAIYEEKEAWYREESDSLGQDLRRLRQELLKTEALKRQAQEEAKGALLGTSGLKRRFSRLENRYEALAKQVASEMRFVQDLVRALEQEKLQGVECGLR

[41] = biological target: Casein kinase I isoform epsilon (Homo sapiens) (UniProt P49674)
Sequence of Casein kinase I isoform epsilon (Homo sapiens) (P49674 whole entry, looked up, canonical isoform): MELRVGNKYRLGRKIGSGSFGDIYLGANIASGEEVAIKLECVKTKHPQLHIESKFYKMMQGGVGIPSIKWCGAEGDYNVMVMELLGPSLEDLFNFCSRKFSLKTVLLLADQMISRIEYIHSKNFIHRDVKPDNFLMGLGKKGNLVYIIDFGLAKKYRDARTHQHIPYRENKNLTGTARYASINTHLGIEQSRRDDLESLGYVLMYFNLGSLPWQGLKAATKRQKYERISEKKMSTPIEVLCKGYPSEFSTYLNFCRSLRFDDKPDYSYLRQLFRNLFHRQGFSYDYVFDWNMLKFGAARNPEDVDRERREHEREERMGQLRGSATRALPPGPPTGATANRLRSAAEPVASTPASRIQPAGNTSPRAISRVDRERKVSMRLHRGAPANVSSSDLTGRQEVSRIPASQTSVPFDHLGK

[42] = biological target: Homeodomain-interacting protein kinase 3 (Homo sapiens) (UniProt Q9H422)
[43] = test system: Phosphatidylinositol 4,5-bisphosphate 3-kinase catalytic subunit alpha isoform (Homo sapiens), P42336 [Q546K]
[44] = biological target: Serine/threonine-protein kinase TAO2 (Homo sapiens) (UniProt Q9UL54)
[45] = biological target: Myosin light chain kinase, smooth muscle (Homo sapiens) (UniProt Q15746)
[46] = Compound concentration 100.0 nM
[47] = Compound concentration 1000.0 nM

`CNC(=O)c1ccc(Nc2ncc(C(F)(F)F)c(NCc3nccnc3N(C)S(C)(=O)=O)n2)cc1` [DEFACTINIB] gave a residual activity [1, 46] of 99%, a residual activity [2, 46] of 71% and a residual activity [3, 46] of 21%. For the same compound, the residual activity [4, 46] was 100%, the residual activity [5, 46] was 44% and the residual activity [6, 46] was 61%. For the same compound, the residual activity [7, 46] was 69%, the residual activity [8, 46] was 100% and the residual activity [9, 46] was 45%. For the same compound, the residual activity [10, 46] was 100%, the residual activity [11, 46] was 98% and the residual activity [12, 46] was 65%. It also gave a residual activity [13, 46] of 100%, an inhibition [14] of -4.42% and a residual activity [15, 46] of 40%. It also gave a residual activity [16, 46] of 85%, a residual activity [17, 46] of 97% and a residual activity [18, 46] of 100%. For the same compound, the residual activity [19, 46] was 100%, the residual activity [20, 46] was 87% and the inhibition [21] was 5.73%. The residual activity [22, 46] was 29%, the residual activity [23, 46] was 98% and the residual activity [24, 46] was 100%. The residual activity [25, 46] was 90%, the residual activity [26, 46] was 100% and the residual activity [27, 46] was 100%. It also gave a residual activity [28, 46] of 85%, a residual activity [29, 46] of 100% and an inhibition [30] of 19.5%. It also gave a residual activity [31, 46] of 82%, a residual activity [32, 46] of 90% and a residual activity [33, 46] of 85%. It also gave an inhibition [34] of 9.61%, a residual activity [35, 46] of 68% and a residual activity [36, 46] of 98%. It also gave a residual activity [37, 46] of 100%, an inhibition [38] of 48.1% and a residual activity [39, 46] of 94%. It also gave a residual activity [40, 46] of 75%, a residual activity [41, 46] of 100% and a residual activity [42, 46] of 47%. The residual activity [43, 46] was 17%, the residual activity [44, 46] was 92% and the residual activity [45, 46] was 75%.
Work on `CN(c1ccnc(CNc2nc(Nc3ccc4c(c3)CC(=O)N4)ncc2C(F)(F)F)n1)S(C)(=O)=O` [PF-00911705] yielded a residual activity [1, 47] of 76%, a residual activity [2, 47] of 23% and a residual activity [3, 47] of 16%. For the same compound, the residual activity [4, 47] was 45%, the residual activity [5, 47] was 41% and the residual activity [6, 47] was 95%. For the same compound, the residual activity [7, 47] was 23%, the residual activity [8, 47] was 59% and the residual activity [9, 47] was 100%. It also gave a residual activity [10, 47] of 100%, a residual activity [11, 47] of 91% and a residual activity [12, 47] of 9.7%. The residual activity [13, 47] was 48%, the inhibition [14] was -3.55% and the residual activity [15, 47] was 42%. For the same compound, the residual activity [16, 47] was 76%, the residual activity [17, 47] was 28% and the residual activity [18, 47] was 40%. The residual activity [19, 47] was 100%, the residual activity [20, 47] was 59% and the inhibition [21] was 13.5%. For the same compound, the residual activity [22, 47] was 20%, the residual activity [23, 47] was 57% and the residual activity [24, 47] was 100%. For the same compound, the residual activity [25, 47] was 77%, the residual activity [26, 47] was 71% and the residual activity [27, 47] was 95%. The residual activity [28, 47] was 81%, the residual activity [29, 47] was 49% and the inhibition [30] was -2.08%. The residual activity [31, 47] was 100%, the residual activity [32, 47] was 100% and the residual activity [33, 47] was 81%. For the same compound, the inhibition [34] was 0.4%, the residual activity [35, 47] was 99% and the residual activity [36, 47] was 82%. The residual activity [37, 47] was 70%, the inhibition [38] was 60.3% and the residual activity [39, 47] was 82%. The residual activity [40, 47] was 33%, the residual activity [41, 47] was 100% and the residual activity [42, 47] was 48%. For the same compound, the residual activity [43, 47] was 93%, the residual activity [44, 47] was 58% and the residual activity [45, 47] was 71%.
